This note sets out measurements from patent publication US20060223812A1, “Treating neurodegenerative conditions” (MAX-PLANCK-GESELLSCHAFT ZUR FORDERUNGDER WISSENSCHAFTEN, …, priority 2004, published 2006).

The target in one test is K18/ΔK280 (Homo sapiens, UniProt P10636, DEL598-598). Kind of test: Thioflavine S assay, inhibition of PHF formation, K18/ΔK280 without heparin. In kind it is biochemical. The source says:
All the polymerisation reactions described so far used heparin as a cofactor for inducing PHF assembly because otherwise the process would be impracticably slow (Goedert et al., 1996; Perez et al., 1996). In order to rule out a potential influence of heparin on the efficiency of the compounds the 4-repeat construct K18/ΔK280 which carries one of the mutations observed in frontotemporal dementia (van Swieten et al., 1999) and is capable of polymerising into PHFs without a polyanionic cofactor (von Bergen, 2001) (FIG. 2E) was used. […] The differences in inhibition effects for K18 (with heparin) and K18/ΔK280 (without heparin) could be caused either by a difference in conformation and/or protein-protein interactions, or perhaps by an interaction between the compound and the cofactor heparin.

The next test addresses T1, htau24 (Homo sapiens, UniProt P10636).
T1 construct: made in house; host or cells: E. coli
Kind of test: Thioflavine S assay, inhibition of PHF formation, htau24. It is filed as biochemical. Particulars: for IC50: ThS fluorescence, read-out: Inhibition of tau aggregation IC50, hTau24; for inhibition at 60 µM: read-out: inhibition of PHF formation, htau24; for effect on PHF formation, htau24: compared to htau23. On the procedure: Assembly of synthetic PHFs of tau protein (K19, 10 μM) was performed at 37° C. in the presence of polyanions (heparin; 5 μM) in 50 mM NH4Ac, pH 6.8. Assembly was followed either qualitatively by electron microscopy or quantitatively by fluorescence assay using thioflavine S. PHF-formation of tau isoforms htau23 and htau24 was carried out in PBS-buffer pH 7.4, 50 μM protein, and 12.5 μM heparin. The samples were incubated at 50° C. for 10 days. In the case of htau24 and K18, DTT was added at a final concentration of 1 mM each day in order to avoid intra-molecular disulfide crosslinking (Barghorn et al., 2000).

A further test addresses T2, PHFs from K19 (Homo sapiens, UniProt P10636).
T2 construct: construct K19 containing three repeats; made in house; host or cells: E. coli
The test is described as follows: Thioflavine S assay, depolymerisation of pre-formed PHFs, K19. It is filed as biochemical. On the procedure:
Depolymerisation of PHFs was monitored by the thioflavine S fluorescence. 60 μM of each compound was tested for its ability to depolymerise pre-formed PHFs. 50 mM NH4Ac, 10 μM PHF (K19), 60 μM compound and 5 μM heparin were mixed in 50 μl volume in a 384 well plate (black microtiter 384 plate round well, ThermoLabsystems, Dreiich, Germany) and incubated overnight at 37° C. As a control the reaction mixture without compound was treated in the same way.
After incubation thioflavine S was added to the buffer to a final concentration of 20 μM and the signal was measured at excitation at 440 nm and emission at 521 nm in a spectrofluorimeter (Ascent; Labsystems, Frankfurt).
(§1) The ThS assay was used to analyse the ability of the five compounds (see Example 4) to depolymerise pre-formed PHFs made from the repeat domain constructs K19 and K18 as well as from isoforms htau23 and htau24, containing 3 or 4 repeats, respectively.
The depolymerisation of K19 filaments (FIG. 4A) followed a similar concentration dependence as the inhibition experiment, with consistently similar or slightly higher DC50 values than the corresponding IC50 concentrations (Table 2). The ratios of IC50/DC50 range from 0.2-1.2. […] Here, too, the concentration dependence for K19 was steeper than for K18 (compare FIGS. 4A, B), similar to that of assembly inhibition (FIGS. 2A, B).
(§2) Tau constructs and isoforms K19, K18, hTau23, hTau24 (10 μM) were first aggregated into PHFs for 48 hours in the presence of 2.5 μM heparin (except K18/ΔK280) and the polymers separated from the soluble tau by centrifugation of 1 h at 100,000 g, redissolved and then exposed to the inhibitors overnight at 37° C. at the indicated concentrations (range 0.001-200 μM). The compounds are capable of disassembling PHFs with varying efficiencies (see Table 2).

The test system of another test is PHFs from K18/ΔK280. The test is described as follows: Thioflavine S assay, depolymerisation of pre-formed PHFs, K18/ΔK280 without heparin. In kind it is biochemical, human. Particulars: ThS fluorescence, PHFs made without heparin. On the procedure: as §1
The higher DC50 values for K18/ΔK280 point to the higher stability of PHFs formed by this mutant.
as §2

Another test concerns the target T3, PHFs from htau24 (Homo sapiens, UniProt P10636).
T3 construct: made in house; host or cells: E. coli
The test is described as follows: Thioflavine S assay, depolymerisation of pre-formed PHFs, htau24. It is filed as biochemical. On the procedure: as §1
Tau constructs and isoforms K19, K18, hTau23, hTau24 (10 μM) were first aggregated into PHFs for 48 hours in the presence of 2.5 μM heparin (except K18/ΔK280) and the polymers separated from the soluble tau by centrifugation of 1 h at 100,000 g, redissolved and then exposed to the inhibitors overnight at 37° C. at the indicated concentrations (range 0.001-200 μM).

In a further test the target is T4, Aβ1-40 peptide (Homo sapiens, UniProt P05067).
T4 construct: Commercial human Aβ1-40 was obtained from Calbiochem; purchased Calbiochem
T4 sequence (P05067 672-711): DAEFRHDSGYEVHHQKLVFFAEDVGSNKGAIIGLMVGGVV
Kind of test: Aβ fibre aggregation inhibition (thioflavine T). In kind it is biochemical. Conditions: 60 μM compound. On the procedure:
Besides the activity of the compounds towards tau fibres, their specificity is an important issue, i.e. the ability to discriminate between different types of aggregates. Therefore, an analysis of the influence of the compounds (60 μM) on amyloid fibrils made from the Aβ1-40 peptide, both in terms of inhibition of de novo filament formation and depolymerisation was performed (FIGS. 8A-B). These fibres are also abundant in Alzheimer brain and contain a core of cross-β-structure, but are located outside the cells, in contrast to the intracellular PHFs.
Commercial human Aβ1-40 was obtained from Calbiochem (Schwalbach, Germany) and stored at −20° C. The AD peptide was routinely dissolved in 100% DMSO to obtain a 2 mM stock solution, which was subsequently stored frozen at −20° C. 5 μl from the 2 mM Aβ stock solution was added to 90 μl of 25 mM phosphate buffer containing 120 mM NaCl, and 0.02% sodium azide, final pH 7.4 and 5 μl of 100% DMSO so that the final DMSO concentration was 10% v/v, and the protein concentration was adjusted to 100 μM. Incubations were at room temperature. In order to accelerate aggregation tubes were put on a lab shaker and agitated at moderate speed. For analysis 5 μl of this solution were added to 45 μl 10 mM phosphate buffer containing 6 μM thioflavine T, pH 6.0, after 30 minutes incubation at room temperature the fluorescence was measured at 504 nm emission by an excitation of 409 nm. To correlate fibril morphology with the fluorescence signal, aliquots of the Aβ1-40 solutions were simultaneously prepared for electron microscopy. The inhibition of fibril formation and disassembly of pre-formed Aβ-fibrils were carried out in triplicates with 60 μM compound and 10 μM protein.
Aβ peptide 1-40 (10 μM) was incubated with moderate shaking overnight at room temperature and incubated with various compounds (60 μM) overnight.

Setting [1] is: ThS fluorescence, read-out: Inhibition of tau aggregation IC50, K18/ΔK280.
Setting [2] is: ThS fluorescence, overnight 37° C., read-out: Depolymerisation of PHFs DC50, K19.
The mark [3] stands for this setting: ThS fluorescence, pre-formed PHFs; read-out: Depolymerisation of PHFs DC50, hTau24.

Each structure is given as a SMILES string. Where “and” joins values, the source holds several entries; their conditions need not be identical. Identical values can stand only once. Like-named read-outs stand apart in the source and are kept apart here.

T2 sequence (P10636 with tags, fused parts or gaps isoform P10636-2 limits assumed): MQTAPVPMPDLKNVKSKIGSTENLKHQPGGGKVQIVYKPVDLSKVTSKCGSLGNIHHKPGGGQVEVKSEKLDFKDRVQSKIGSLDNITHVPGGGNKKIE
Sequence of K18/ΔK280 (P10636 with tags, fused parts or gaps DEL598-598): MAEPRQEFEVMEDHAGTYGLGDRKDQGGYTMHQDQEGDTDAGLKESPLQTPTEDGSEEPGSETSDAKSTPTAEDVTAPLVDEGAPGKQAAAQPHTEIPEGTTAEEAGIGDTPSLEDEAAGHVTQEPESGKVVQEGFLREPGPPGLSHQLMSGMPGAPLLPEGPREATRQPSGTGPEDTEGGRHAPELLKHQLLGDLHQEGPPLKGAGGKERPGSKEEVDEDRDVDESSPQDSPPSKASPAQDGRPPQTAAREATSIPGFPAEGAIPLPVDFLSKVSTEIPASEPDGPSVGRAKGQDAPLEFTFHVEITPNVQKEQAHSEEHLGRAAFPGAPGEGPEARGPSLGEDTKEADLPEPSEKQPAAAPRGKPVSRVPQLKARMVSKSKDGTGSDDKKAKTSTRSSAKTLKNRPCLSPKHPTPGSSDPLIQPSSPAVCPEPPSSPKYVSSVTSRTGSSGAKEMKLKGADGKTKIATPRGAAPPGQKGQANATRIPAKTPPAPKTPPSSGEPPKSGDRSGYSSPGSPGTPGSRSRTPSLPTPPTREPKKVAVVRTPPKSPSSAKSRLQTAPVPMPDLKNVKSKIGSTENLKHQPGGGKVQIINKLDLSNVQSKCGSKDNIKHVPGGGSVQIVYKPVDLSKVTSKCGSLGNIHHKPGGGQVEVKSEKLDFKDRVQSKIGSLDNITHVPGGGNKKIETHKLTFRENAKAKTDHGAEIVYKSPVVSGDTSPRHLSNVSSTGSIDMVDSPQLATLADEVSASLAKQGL
T3 sequence (P10636 1-383 isoform P10636-6): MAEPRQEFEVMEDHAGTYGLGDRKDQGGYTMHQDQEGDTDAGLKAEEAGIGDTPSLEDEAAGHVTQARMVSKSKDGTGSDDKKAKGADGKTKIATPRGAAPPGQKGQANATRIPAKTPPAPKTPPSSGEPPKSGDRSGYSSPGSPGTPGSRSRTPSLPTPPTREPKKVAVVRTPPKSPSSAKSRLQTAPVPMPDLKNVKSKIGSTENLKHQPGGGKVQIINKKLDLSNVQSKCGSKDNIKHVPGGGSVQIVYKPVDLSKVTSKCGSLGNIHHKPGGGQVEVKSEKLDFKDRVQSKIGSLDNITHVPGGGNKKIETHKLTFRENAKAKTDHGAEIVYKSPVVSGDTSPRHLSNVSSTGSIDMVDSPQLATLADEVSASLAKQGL
T1 sequence (P10636 1-383 isoform P10636-6): as above

As for `COc1cccc2c1C(=O)c1c(O)c3c(c(O)c1C2=O)CC(O)(C(=O)CO)CC3OC1CC(N)C(O)C(C)O1` (centres unmarked) [Adriamycin, 10-(4-Amino-5-hydroxy-6-methyl-tetrahydro-pyran-2-yloxy)-6,8,11-trihydroxy-8-(2-hydroxyethanoyl)-1-methoxy-7,8,9,10-tetrahydro-naphthacene-5,12-dione, reference compound], the IC50 turned out to be 3.9 µM at K18/ΔK280 (Inhibition of tau aggregation IC50, K18/ΔK280, ThS fluorescence) and 2.7 µM at htau24. Moreover, the DC50 is 27 µM on PHFs from K19 (read-out: Depolymerisation of PHFs DC50, K19, ThS fluorescence, overnight 37° C.); 22 µM in the test with PHFs from K18/ΔK280; above 60 µM on PHFs from htau24 (read-out: Depolymerisation of PHFs DC50, hTau24; ThS fluorescence, pre-formed PHFs).
`COc1cccc2c1C(=O)c1c(O)c3c(c(O)c1C2=O)CC(O)(C(C)=O)CC3OC1CC(N)C(O)C(C)O1` (centres unmarked) [Daunorubicin, 8-Acetyl-10-(4-amino-5-hydroxy-6-methyl-tetrahydro-pyran-2-yloxy)-6,8,11-trihydroxy-1-methoxy-7,8,9,10-tetrahydro-naphthacene-5,12-dione, reference compound]: the IC50 at K18/ΔK280 (setting [1]) is 48 µM and 48.1 µM; on htau24, 3.4 µM. The inhibition at 60 µM at htau24 fell in the range of 70 to 90%. Besides, the DC50 on PHFs from K19 (setting [2]) was 3.1 µM; in the test with PHFs from K18/ΔK280 it was 7.7 µM; at PHFs from htau24 (setting [3]) it was above 60 µM. Moreover, the “depolymerisation of htau24 filaments” value on PHFs from htau24 is “only weak PHF breakers”. Also, the “inhibition of Aβ fibre aggregation” value against Aβ1-40 peptide is “most efficient”.
Turning to `Cc1cc(O)c2c(c1)C(=O)c1cc(O)cc(O)c1C2=O` [Emodin, 1,3,8-Trihydroxy-6-methyl-anthraquinone], the results for the IC50 on K18/ΔK280 (setting [1]) and at htau24 were 1.9 µM and 1.8 µM, respectively. Moreover, the inhibition at 60 µM on htau24 (60 μM compound) is 70 to 90%. In addition, the DC50 on PHFs from K19 (setting [2]) was 2 µM; in the test with PHFs from K18/ΔK280, 2.7 µM; on PHFs from htau24 (setting [3]) it was above 60 µM. Also, on PHFs from htau24, the “depolymerisation of htau24 filaments” value is recorded as “only weak PHF breakers”. In addition, on Aβ1-40 peptide, the “inhibition of Aβ fibre aggregation” value was “most efficient”.
Turning to `O=C(c1ccccc1)c1ccc(O)c(O)c1O` [PHF005, 1-Phenyl-1-(2,3,4-trihydroxy-phenyl)-methanone], the “inhibition of filament formation, K18/ΔK280” value against K18/ΔK280 is reported as “failed nearly completely”. Besides, the IC50 at K18/ΔK280 (setting [1]) is above 60 µM; at htau24, above 100 µM. For the same compound, on htau24, the “effect on PHF formation, htau24” value was “only a small effect”. In addition, the DC50 on PHFs from K19 (setting [2]) is 9.4 µM; with PHFs from K18/ΔK280, above 100 µM; at PHFs from htau24 (setting [3]), 10.8 µM. For the same compound, the “Depolymerisation of PHFs DC50, K18/ΔK280” value in the test with PHFs from K18/ΔK280 is given as “not accurately detectable”. The inhibition at 60 µM on Aβ1-40 peptide (10 μM Aβ1-40, read-out: inhibition of Aβ filament formation) was around 50%.
Regarding `O=C1c2ccc(O)c(O)c2C(=O)c2c(O)ccc(O)c21` [PHF016, 1,2,5,8-Tetrahydroxy-anthraquinone], the results for the IC50 on K18/ΔK280 (setting [1]) and at htau24 were 1.3 µM and above 60 µM, respectively. The “effect on PHF formation, htau24” value on htau24 is given as “only a small effect”. Besides, the DC50 was 7.8 µM at PHFs from K19 (setting [2]), above 60 µM with PHFs from K18/ΔK280 and 39.2 µM on PHFs from htau24 (setting [3]). Also, the “Depolymerisation of PHFs DC50, K18/ΔK280” value in the test on PHFs from K18/ΔK280 is “not accurately detectable”. In addition, the “inhibition of Aβ fibre aggregation” value on Aβ1-40 peptide is given as “most efficient”.

Usually inhibition stands for the share of the control response that was lost under treatment.
